Holding throughout (type): functional, cell-based
The test system of assay [1] is NCI-H1975. Briefly: Antiproliferative activity against human NCI-H1975 cells incubated for 72 hrs by MTT assay. The conditions noted are these: NCI-H1975, 72 h. For orientation: Tetrazolium assays rely on reduction of a dye to a coloured formazan, in cell work by metabolically active cells.
Assay [2] relates to Osimertinib-resistant NCI-H1975 cell. Briefly: Antiproliferative activity against human Osimertinib-resistant NCI-H1975 cell (AZDR) incubated for 72 hrs by MTT assay.
Assay [3] has as its system MCF7. Briefly: Antiproliferative activity against human MCF7 cells incubated for 72 hrs by MTT assay. The conditions noted are these: MCF7, 72 h.

The structures appear in SMILES notation.

Our source for the IC50 values is ChEMBL document CHEMBL5537206 (J Med Chem, 2024).

One may read the IC50 as the concentration that inhibits the measured activity by half. Higher therefore signals weaker potency. `C=CC(=O)Nc1cccc(Nc2nc(Nc3cnn(C)c3)nc3cc(OC)ccc23)c1`: the figures for the IC50 in assay [1], in assay [2] and in assay [3] were 1.38 µM, 2.5 µM and 1.34 µM, respectively.
Take `C=CC(=O)Nc1cccc(Nc2nc(Nc3cc(C(F)(F)F)n(C)n3)nc3ccc(Cl)cc23)c1`: the IC50 in assay [1] worked out at 2.36 µM; in assay [2], 3.45 µM; in assay [3] it was 10 µM.
For `C=CC(=O)Nc1cccc(Nc2nc(Nc3cnn(Cc4ccccc4)c3)nc3ccc(Cl)cc23)c1`, in that order: 3.98 µM, 3.83 µM and 1.3 µM.
Take `CCC(=O)Nc1cccc(Nc2nc(Nc3cnn(C)c3)nc3ccc(Cl)cc23)c1`: the IC50 worked out at 6.35 µM in assay [1], 9.58 µM in assay [2] and 4.68 µM in assay [3].
Regarding `C=CC(=O)Nc1cccc(Nc2nc(Nc3cnn(C)c3)nc3cc(C(F)(F)F)ccc23)c1`, the IC50 in assay [1] came to 1.3 µM; in assay [2] it was 2.62 µM; in assay [3] it was 1.16 µM.
For the compound `C=CC(=O)Nc1cccc(Nc2nc(Nc3cnn(CC(F)(F)F)c3)nc3ccc(Cl)cc23)c1`, the half-maximal inhibitory concentration (IC50) in assay [1] was 2.15 µM; in assay [2], 3.55 µM; in assay [3], 6.83 µM.
Consider `C=CC(=O)Nc1cccc(Nc2nc(Nc3cnn(C)c3)nc3c(F)cccc23)c1`, for which the IC50 worked out at 2.11 µM in assay [1], 3.34 µM in assay [2] and 3.74 µM in assay [3].
For `C=CC(=O)Nc1cccc(Nc2nc(Nc3cnn(C)c3)nc3cc(F)ccc23)c1`, in that order: 1.28 µM, 17.7 µM and 11.1 µM.
For `C=CC(=O)Nc1cccc(Nc2nc(Nc3cnn(C)c3)nc3ccc(Br)cc23)c1`, in that order: 1.1 µM, 2.35 µM and 1.64 µM.
For `C=CC(=O)Nc1cccc(Nc2nc(Nc3cnn(C)c3)nc3ccccc23)c1`, in that order: 0.94 µM, 2.81 µM and 4.6 µM.
`C=CC(=O)Nc1cccc(Nc2nc(Nc3ccnn3C)nc3ccc(Cl)cc23)c1`: the values for the IC50 in assay [1], in assay [2] and in assay [3] were 4.25 µM, 9.47 µM and 6.89 µM, respectively.
For `C=CC(=O)Nc1cccc(Nc2nc(Nc3cnn(CCOC)c3)nc3ccc(Cl)cc23)c1`, in that order: 3.18 µM, 3.71 µM and 6.56 µM.
Take `C=CC(=O)Nc1ccccc1Nc1nc(Nc2cnn(C)c2)nc2ccc(Cl)cc12`: the IC50 in assay [1] was 5.63 µM; in assay [2], 6.53 µM; in assay [3] it was 4.26 µM.
Take `C=CC(=O)Nc1cccc(Nc2nc(Nc3cnn(C)c3)nc3c(Cl)cccc23)c1`: the IC50 was 2.21 µM in assay [1], more than 20 µM in assay [2] and 1.72 µM in assay [3].
For `C=CC(=O)Nc1cccc(Nc2nc(Nc3ccn(C)n3)nc3ccc(Cl)cc23)c1`, in that order: 1.37 µM, 3.55 µM and 12.4 µM.
For `C=CC(=O)Nc1cccc(Nc2nc(Nc3cnn(C)c3)nc3ccc(F)cc23)c1`, the figures for the IC50 in assay [1], in assay [2] and in assay [3] were 8.76 µM, 1.52 µM and 2.36 µM, respectively.
As to `C=CC(=O)Nc1cccc(Nc2nc(Nc3cnn(C4CCN(C)CC4)c3)nc3ccc(Cl)cc23)c1`, the IC50 in assay [1] was found to be 2.35 µM; in assay [2] it was 4.53 µM; in assay [3], 5.26 µM.
For `C=CC(=O)Nc1cccc(Nc2nc(Nc3cn(CC)nc3C)nc3ccc(Cl)cc23)c1`, in that order: more than 20 µM, 2.14 µM and 10.8 µM.
For `C=CC(=O)Nc1cccc(Nc2nc(Nc3cnn(C)c3)nc3cc(C)ccc23)c1`, in that order: 1.59 µM, 3.34 µM and 0.52 µM.
For `C=CC(=O)Nc1cccc(Nc2nc(Nc3cnn(C)c3)nc3cccc(F)c23)c1`, in that order: 1.06 µM, 3.44 µM and 9.16 µM.
Take `C=CC(=O)Nc1cccc(Nc2nc(Nc3cnn(-c4ccccc4)c3)nc3ccc(Cl)cc23)c1`: the figures for the IC50 in assay [1], in assay [2] and in assay [3] were 10.1 µM, 8.13 µM and 15.2 µM, respectively.
For `C=CC(=O)Nc1cccc(Nc2nc(Nc3cnn(C)c3)nc3cc(Cl)ccc23)c1`, in that order: 15 µM, 13.8 µM and 2.95 µM.
Regarding `C=CC(=O)Nc1cccc(Nc2nc(Nc3cnn(C)c3C)nc3ccc(Cl)cc23)c1`, the IC50 in assay [1] is 1.02 µM; in assay [2] it was 3.4 µM; in assay [3] it was 3.24 µM.
For `C=CC(=O)Nc1cccc(Nc2nc(Nc3cccc(C)c3)nc3ccc(Cl)cc23)c1`, the IC50 in assay [1] is 2.68 µM; in assay [2], 4.77 µM; in assay [3], 7.73 µM.
As to `C=CC(=O)Nc1cccc(Nc2nc(Nc3ccc(-n4cccn4)cc3)nc3ccc(Cl)cc23)c1`, the IC50 turned out to be 1.51 µM in assay [1], 5.84 µM in assay [2] and 4.78 µM in assay [3].
For `C=CC(=O)Nc1cccc(Nc2nc(Nc3ccc(N(C)CCN(C)C)cc3)nc3ccc(Cl)cc23)c1`, in that order: 1.24 µM, 1.89 µM and 2.53 µM.
For `C=CC(=O)Nc1cccc(Nc2nc(Nc3cnn(C)c3)nc3ccc(OC)cc23)c1`, in that order: 1.52 µM, 4.64 µM and 2.2 µM.
For `C=CC(=O)Nc1cccc(Nc2nc(Nc3cnn(C)c3)nc3ccc(I)cc23)c1`, in that order: 0.75 µM, 0.98 µM and 1.84 µM.
For `C=CC(=O)Nc1cccc(Nc2nc(Nc3cnn(C4CCOCC4)c3)nc3ccc(Cl)cc23)c1`, the values for the IC50 in assay [1], in assay [2] and in assay [3] were 1.4 µM, 3.72 µM and 2.91 µM, respectively.
In the case of `C=CC(=O)Nc1cccc(Nc2nc(Nc3cccc(Br)c3)nc3ccc(Cl)cc23)c1`, the IC50 in assay [1] was 2.94 µM; in assay [2], 2.8 µM; in assay [3], 3.58 µM.
For `C=CC(=O)Nc1cccc(Nc2nc(Nc3cn[nH]c3)nc3ccc(Cl)cc23)c1`, in that order: 2.56 µM, 4.68 µM and 5.37 µM.
For `C=CC(=O)Nc1cccc(Nc2nc(Nc3ccccc3C)nc3ccc(Cl)cc23)c1`, in that order: 6.58 µM, 7.31 µM and 8.26 µM.
For `C=CC(=O)Nc1cccc(Nc2nc(NCCn3cccn3)nc3ccc(Cl)cc23)c1`, in that order: 10.1 µM, 22.8 µM and 13.7 µM.
Take `C=CC(=O)Nc1cccc(Nc2nc(Nc3cn(C)nc3C(F)(F)F)nc3ccc(Cl)cc23)c1`: the IC50 worked out at 1.02 µM in assay [1], 3.36 µM in assay [2] and 5.72 µM in assay [3].
On to `C=CC(=O)Nc1cccc(Nc2nc(Nc3cnn(C)c3)nc3ccc(C)cc23)c1`, for which the IC50 is 1.86 µM in assay [1], 2.51 µM in assay [2] and 1.24 µM in assay [3].
On to `C=CC(=O)Nc1cccc(Nc2nc(Nc3cnn(C)c3)nc3cccc(Cl)c23)c1`, for which the IC50 came out at 0.81 µM in assay [1], 2.44 µM in assay [2] and 1.85 µM in assay [3].
As to `C=CC(=O)Nc1cccc(Nc2nc(Nc3ccc(C)cc3)nc3ccc(Cl)cc23)c1`, the IC50 was 2.29 µM in assay [1], 6.56 µM in assay [2] and 4.24 µM in assay [3].
For `C=CC(=O)Nc1cccc(Nc2nc(Nc3cnn(C)c3)nc3ccc(C(F)(F)F)cc23)c1`, the IC50 in assay [1] amounted to 1.56 µM; in assay [2], 2.75 µM; in assay [3], 18.2 µM.
